Test system: nNOS
Assay: In vitro NOS inhibition, hemoglobin capture assay
Format: biochemical
Settings: ratio of Ki values, eNOS over nNOS

SMILES	eNOS/nNOS
Nc1cccc(CC2CNCC2NCCCO)n1 (racemic) [compound 4, (±)-3-{cis-4'-[(6“-aminopyridin-2”-yl)methyl]pyrrolidin-3'-ylamino}propan-1-ol]	39
Cc1cc(N)nc(CC2CNCC2NCCNCc2ccc(Cl)cc2)c1 (racemic) [compound 6, (±)-N^1-{cis-4'-[(6“-amino-4”-methylpyridin-2“-yl)methyl]pyrrolidin-3'-yl}-N^2-(4'-chlorobenzyl)ethane-1,2-diamine]	1002
Cc1cc(N)nc(CC2CNCC2NCCNCc2cccc(Cl)c2)c1 (racemic) [compound 7, (±)-N^1-{trans-4'-[(6“-amino-4”-methylpyridin-2”-yl)methyl]pyrrolidin-3'-yl}-N^2-(3'-chlorobenzyl)ethane-1,2-diamine]	381

Source: publication PMC3103786 (Journal of medicinal chemistry, 2009)
